Laboratory results: US20250179550A1, “Methods to imbue polymeric materials with new structures and functions” (The Regents of the University of California, priority 2022, published 2025)

Assays:
MicD-F and ArtGox [1] = experiment: One-pot cyclodehydration and dehydrogenation of peptide substrates by MicD-F and ArtGox, LC-MS; assay type: biochemical, Microcystis aeruginosa; Arthrospira platensis
From the text: Next, we explored whether MicD-F and ArtGox could act in synergy to convert peptides containing non-α-amino acids at the +1 site directly into the corresponding thiazoles 3(a-i) (FIG. 9A). […] ArtGox efficiently oxidized each thiazoline to the corresponding thiazole in yields that exceeded 97% over the two steps for every example (products 3(a-i)) (FIGS. 9B and D). UHPLC analysis of each reaction mixture confirmed that thiazoles 3a-e were the sole reaction product. Coelution with excess flavin mononucleotide precluded UHPLC analysis of thiazoles 3f-i (FIG. 18).
Reactions were analyzed as described above. Under these conditions, every peptide evaluated was a substrate for MicD-F and a few were substrates for both MicD-F and ArtGox (FIG. 10B-C). Substrates containing β^3-amino acid-, β^2-amino acid-, or cyclic β^2,β^3-amino acids at the −1 site (substrates 4(a-d)), were fully consumed under these conditions (<1% unmodified peptide). […] In contrast, substrate 4b, with geminal β^2-methyl substituents, was converted into a 30/70 mixture of thiazoline 5b and thiazole 6b. Substrates 4e-g containing aramid monomers at the −1 position reacted more slowly under these conditions, producing the analogous thiazoline products in 65-85% yield after 24 h reaction at pH 8 (FIG. 10B-C). […] With the exception of substrate 4c, increasing the pH to 9.0 promoted formation of the desired thiazole product (FIG. 21B-C). However, even under these conditions only substrate 4b (88%) yielded greater than 41% thiazole product (FIG. 21B-C). […] ArtGox appears especially intolerant of substitution or sp^2 hybridization at the β^3-position of substrates at the −1 site.
A typical reaction scale for analysis via LC-MS was 30 μL. Peptide substrate stock (3 L) suspended at 1 mM in 10 mM bicine, 150 mM NaCl, 1 mM TCEP, pH 9.0 was added to 21 L of reaction buffer (7.14 mM ATP, 7.14 mM MgCl2, 2.86 mM FMN, 100 mM bicine, 150 mM NaCl, 1 mM TCEP, pH 8.0 or 9.0). Separately, aliquots of MicD-F (500 M in 20 mM HEPES, 150 mM NaCl, 1 mM TCEP, pH 7.4) and ArtGox (800 M in 20 mM HEPES, 150 mM NaCl, 1 mM TCEP, pH 7.4) were thawed on ice. The thawed enzyme aliquots were then diluted with cold storage buffer (20 mM HEPES, 150 mM NaCl, 1 mM TCEP, pH 7.4) to a concentration equal to 10× the desired enzyme concentration. The peptide and enzyme solutions were then incubated at 37° C. for 15 minutes. After temperature equilibration, enzyme solutions (3 μL of each) were added to the peptide solution and gently pipette mixed. The resulting solution was then incubated at 37° C. for the indicated amount of time before LC-MS analysis.
To remove 6×His-tagged enzymes, Ni-NTA (Qiagen, Hilden, Germany) slurry and crude reaction were mixed 1:1 by volume and incubated on ice for 30 minutes with occasional agitation. The Ni-NTA resin was then removed by centrifugation at 21,300×g for 10 minutes at 4° C. Enzyme-depleted reaction mixture (1 μL) was used for LC-MS analysis which was performed on an Agilent 1290 Infinity II HPLC connected to an Agilent 6530B QTOF AJS-ESI. The mobile phase for LC-MS was water and acetonitrile with 0.1% (v/v) formic acid and a flow rate of 0.7 mL/min. Each sample was injected onto an Eclipse XDB C-18 column (2.1×50 mm, 1.8-Micron, room temperature, Agilent) and separated using a linear gradient from 5 to 95% acetonitrile over 4.5 minutes after an initial hold at 5% acetonitrile for 0.5 minutes. The following parameters were used during acquisition: Fragmentor voltage 175 V, gas temperature 300° C., gas flow 8 L/min, sheath gas temperature 350° C., sheath gas flow 11 L/min, nebulizer pressure 35 psi, skimmer voltage 65 V, Vcap 3500 V, 1 spectra/s.

MicD-F [2] = experiment: MicD-F-catalyzed cyclodehydration of leader-free peptide substrates, LC-MS; assay type: biochemical, Microcystis aeruginosa; settings: pH 8.0, 37° C.; for cyclodehydration by MicD-F: 50 mol % MicD-F, 24 hours
Procedure: We began by exploring the tolerance of MicD-F for sequences containing non-α-amino acid monomers at the +1 site (FIG. 8A and FIG. 9A-B). A series of nine potential substrates were prepared in which a non-α-amino acid preceded the reaction site (substrates 1(a-i)). Monomers evaluated included arenes, aramids, fluorophores, and linear and cyclic β-amino acids. […] Cyclization was analyzed initially via liquid chromatography-mass spectrometry (LC-MS) and the extent of product formation estimated by integrating the extracted ion chromatogram (FIG. 9B-C). Virtually every substrate examined underwent MicD-F-catalyzed cyclization to the corresponding thiazoline under these conditions. Substrates containing electron-withdrawing or donating aromatic rings, bulky multi-ring systems, and linear and cyclic β-amino acids were all cyclized efficiently by MicD-F, with yields between 91 and 99% (products 2(a-i)). UHPLC analysis of each reaction mixture confirmed that thiazolines 2a-i were the sole reaction products under these conditions (FIG. 16).
A typical reaction scale for analysis via LC-MS was 30 μL. Peptide substrate stock (3 μL) suspended at 1 mM (10 mM bicine, 150 mM NaCl, 1 mM TCEP, pH 9.0) was added to 24 μL of reaction buffer (6.25 mM ATP, 6.25 mM MgCl2, 100 mM bicine, 150 mM NaCl, 1 mM TCEP, pH 8.0 or 9.0). Separately, an aliquot of MicD-F (500 M in 20 mM HEPES, 150 mM NaCl, 1 mM TCEP, pH 7.4) was thawed on ice. The thawed enzyme aliquot was then diluted with cold storage buffer (20 mM HEPES, 150 mM NaCl, 1 mM TCEP, pH 7.4) to a concentration equal to 10× the desired enzyme concentration. The peptide and enzyme solutions were then incubated at 37° C. for 15 minutes. After temperature equilibration, enzyme solution (3 μL) was added to the peptide solution and gently pipette mixed. The resulting solution was then incubated at 37° C. for the indicated amount of time before LC-MS analysis.
To remove 6×His-tagged enzymes, Ni-NTA (Qiagen, Hilden, Germany) slurry and crude reaction were mixed 1:1 by volume and incubated on ice for 30 minutes with occasional agitation. […]

MicD-F [3] = experiment: Reaction of protein substrates (mCherry and Rop variants) with MicD-F, LC-MS deconvoluted mass; assay type: biochemical, Microcystis aeruginosa; settings: 50 mol % MicD-F, 24 hours
Procedure: Reactions of proteins with MicD-F were performed in the manner described above with minor modifications. Namely, the substrate stock was a 1 mM solution of protein in 20 mM HEPES, 150 mM NaCl, 1 mM TCEP, pH 7.4.
(§1) Unprocessed reaction mixture (1 μL) was used for LC-MS analysis which was performed on an Agilent 1290 Infinity II HPLC connected to an Agilent 6530B QTOF AJS-ESI. The mobile phase for LC-MS was water and acetonitrile with 0.1% (v/v) formic acid and a flow rate of 0.4 mL/min. Each sample was injected onto a Poroshell 300SB-C8 column (2.1×75 mm, 5-Micron, room temperature, Agilent) using a linear gradient from 5 to 55% acetonitrile over 8 minutes after an initial hold at 5% acetonitrile for 2 minutes (0.4 mL/min). The following parameters were used during acquisition: Fragmentor voltage 225 V, gas temperature 300° C., gas flow 10 L/min, sheath gas temperature 350° C., sheath gas flow 11 L/min, nebulizer pressure 35 psi, skimmer voltage 65 V, Vcap 5000 V, 1 spectra/s. Intact protein masses were obtained via deconvolution using the Maximum Entropy algorithm in Mass Hunter Bioconfirm (V10, Agilent).

MicD-F and ArtGox [4] = experiment: Reaction of protein substrates with MicD-F and ArtGox in tandem, LC-MS deconvoluted mass; assay type: biochemical, Microcystis aeruginosa; Arthrospira platensis; settings: 50 mol % MicD-F, 80 mol % ArtGox, pH 9.0, 37° C., 24 hours
Procedure: Reactions of proteins with MicD-F and ArtGox were performed in the manner described above with minor modifications. The substrate stock was a 1 mM solution of protein in 20 mM HEPES, 150 mM NaCl, 1 mM TCEP, pH 7.4. Reactions were carried out at either 25° C. or 37° C. as indicated.
as §1

[5] = 50 mol % MicD-F, 8 mol % ArtGox, pH 8.0, 37° C., 24 h
[6] = 50 mol % MicD-F, 8 mol % ArtGox, pH 8.0, 37° C., 24 h, −1 site substrates

Chain of MicD-F (as listed by the source): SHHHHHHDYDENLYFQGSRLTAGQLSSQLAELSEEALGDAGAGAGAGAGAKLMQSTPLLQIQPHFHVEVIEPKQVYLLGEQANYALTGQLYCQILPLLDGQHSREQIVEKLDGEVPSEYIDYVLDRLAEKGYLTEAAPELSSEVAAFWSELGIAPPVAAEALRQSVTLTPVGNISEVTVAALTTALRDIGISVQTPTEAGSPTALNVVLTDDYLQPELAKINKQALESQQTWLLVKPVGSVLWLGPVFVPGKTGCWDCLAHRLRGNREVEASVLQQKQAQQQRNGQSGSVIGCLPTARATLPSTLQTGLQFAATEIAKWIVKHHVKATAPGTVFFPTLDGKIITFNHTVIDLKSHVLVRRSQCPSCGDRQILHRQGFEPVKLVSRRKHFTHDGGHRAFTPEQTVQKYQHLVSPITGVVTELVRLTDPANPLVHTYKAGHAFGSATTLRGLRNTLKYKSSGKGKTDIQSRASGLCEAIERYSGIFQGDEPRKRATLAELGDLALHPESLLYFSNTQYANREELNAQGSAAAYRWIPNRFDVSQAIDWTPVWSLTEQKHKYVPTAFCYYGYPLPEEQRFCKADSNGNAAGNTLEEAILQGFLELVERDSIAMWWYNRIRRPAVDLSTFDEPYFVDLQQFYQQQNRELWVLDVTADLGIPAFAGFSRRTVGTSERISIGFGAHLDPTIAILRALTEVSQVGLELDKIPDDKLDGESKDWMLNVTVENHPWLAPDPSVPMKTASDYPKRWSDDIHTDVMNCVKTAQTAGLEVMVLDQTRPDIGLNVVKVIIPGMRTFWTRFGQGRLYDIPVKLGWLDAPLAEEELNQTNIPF

## IC-[B3-HIle]-AYDG [substrate 4a]
MicD-F and ArtGox [1]; [5]
  conversion into thiazoline: converted cleanly
  thiazole formation: little

## ICAYDG [reference compound]
MicD-F [2]; 5 mol % MicD-F, 4 h
  conversion by MicD-F: complete conversion
MicD-F and ArtGox [1]; 5 mol % MicD-F, 40 mol % ArtGox, pH 8.0, 37° C., 16 h
  two-step conversion into thiazole: complete two-step conversion

## IC-[ACHC]-AYDG [substrate 4c]
MicD-F and ArtGox [1]; [5]
  conversion into thiazoline: converted cleanly
  thiazole formation: no

## IC-[ACPC]-AYDG [substrate 4d]
MicD-F and ArtGox [1]; [5]
  conversion into thiazoline: converted cleanly
  thiazole formation: no

## ICIAYDG [model peptide with α-amino acid Ile between the site of cyclization and the AYD motif, reference compound]
MicD-F [2]
  cyclodehydration by MicD-F: complete reaction
MicD-F and ArtGox [1]; [5]
  thiazole formation: complete conversion

## ITAYDG
MicD-F [2]
  cyclodehydration by MicD-F: significant cyclodehydration

## mCherryC+: mCherry variant with MCAYDG appended to the C-terminus, SEQ ID NO: 9
MicD-F [3]; pH 9.0, 37° C.
  cyclodehydration of mCherry variants to thiazoline (loss of water): virtually complete conversion
MicD-F [3]; pH 9.0, 42° C.
  cyclodehydration of mCherry variants to thiazoline (loss of water): nearly completely converted
MicD-F and ArtGox [4]
  thiazole installation (mass shift relative to MicD-F only): expected −2 Da shift

## IC-[B2-Dimethyl]-AYDG [substrate 4b]
MicD-F and ArtGox [1]; [6]
  yield of thiazole product: 70%
  yield of thiazoline product: 30%
MicD-F and ArtGox [1]; 50 mol % MicD-F, 8 mol % ArtGox, pH 9.0, 37° C., 24 h, −1 site substrates
  yield of thiazole product: 88%
